From PubChem BioAssay (NCI)
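Protocol summary: plate cells (96-well), add compound at 5 concentrations, incubate 48 h, interpolate endpoints linearly. TGI is the concentration that stops growth completely.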 Where a SMILES comes first, the peptide text is derived from it. Bridges are numbered along the chain shown (N, C = ends). [ ]: non-standard residue; d: D form. The star is where a group is joined. ξ: configuration not given here. Cbz = O=C(OCc1ccccc1)*; ξD = NC(CC(=O)O)C(=O)O; Ac3c = NC1(C(=O)O)CC1; Boc = CC(C)(C)OC(=O)*; OtBu = CC(C)(C)O*

Experiments:
Experiment in all cases: DTP human tumour cell line panel, 48 h
786-0 renal = system: 786-0 renal
A549 NSCLC = system: A549 NSCLC
CAKI-1 renal = system: CAKI-1 renal
COLO 205 colon = system: COLO 205 colon
HS 578T breast = system: HS 578T breast
NCI-H460 lung = system: NCI-H460 lung
NCI-H522 lung = system: NCI-H522 lung
OVCAR-3 ovarian = system: OVCAR-3 ovarian
UO-31 renal = system: UO-31 renal

Structure (SMILES)	TGI (786-0 renal)	TGI (A549 NSCLC)	TGI (CAKI-1 renal)	TGI (COLO 205 colon)	TGI (HS 578T breast)	TGI (NCI-H460 lung)	TGI (NCI-H522 lung)	TGI (OVCAR-3 ovarian)	TGI (UO-31 renal)
Cc1ccc(SC[C@@]2(C(F)F)NC(=O)NC2=O)cc1	> 100 µM	> 100 µM	> 100 µM	> 100 µM	> 100 µM	> 100 µM	> 100 µM	> 100 µM	> 100 µM
CC(=O)CC(C)(C)NC(=O)[C@@]1(O)CC[C@H]2[C@@H]3CCC4=CC(=O)CC[C@@H]4[C@H]3CC[C@@]21C	> 100 µM	> 100 µM		> 100 µM	> 100 µM	> 100 µM	> 100 µM	> 100 µM	> 100 µM
CC(C)C(C/C=C1/CC(CO)(COC(=O)C2CCCCC2)OC1=O)C(C)C (stereo not drawn)	26.9 µM	26.4 µM	37.8 µM	20.9 µM	43.5 µM	89.6 µM	34.1 µM	34.5 µM	33.1 µM
Cc1ccc(N=C2SC(c3ccc(C)cc3)(c3ccc(C)cc3)c3ccccc32)cc1	> 100 µM	> 100 µM	> 100 µM	> 100 µM	> 100 µM	> 100 µM	> 100 µM	> 100 µM	> 100 µM
N#CC1(c2ccccc2)CCN(C2(c3ccccc3)CCCCC2)CC1	> 100 µM	> 100 µM	> 100 µM	> 100 µM	> 100 µM			> 100 µM	> 100 µM
COc1ccc2c(-c3ccc(OCCN(C)C)cc3)c(Oc3ccc(Cl)cc3)c(=O)oc2c1	6.32 µM	18.7 µM	31 µM	10.5 µM	> 54.6 µM	> 42.4 µM	12.1 µM	21 µM	11.9 µM
Cc1ccc(S(=O)(=O)c2ccc([N+](=O)[O-])o2)cc1	3.26 µM	28.1 µM	1.54 µM	2.27 µM	13.4 µM	33.4 µM	0.578 µM	3.71 µM	2.78 µM
CC1C2CC(C/C2=N/O)C1(C)C (stereo not drawn)	> 100 µM	> 100 µM	> 100 µM	> 100 µM	> 100 µM	> 100 µM	> 100 µM	> 100 µM	> 100 µM
COc1cc2c(cc1C)NC(=O)/C2=C\c1ccncc1	18.8 µM	66.5 µM	16.5 µM	> 100 µM	8.1 µM	41.7 µM	9.53 µM	10.3 µM	18.3 µM
O=C1NC2CCCCC2N=C1/C(C(=O)c1ccccc1)=C(\O)c1ccccc1 (stereo not drawn)	> 100 µM	> 100 µM	> 100 µM	> 100 µM	> 100 µM	> 100 µM	61.9 µM	> 100 µM	78.7 µM
CC(C)(C)c1cc(C(=O)/C=C/c2ccn[nH]2)cc(C(C)(C)C)c1O	3.05 µM	9.8 µM	6.98 µM	4.98 µM	9.22 µM	8.6 µM	2.73 µM	7.39 µM	3.23 µM
COc1ccc2c(c1OC)C(=O)O[C@@H]2[C@H]1c2cc3c(cc2CCN1C)OCO3	> 100 µM	> 100 µM	> 100 µM	> 100 µM	> 100 µM	> 100 µM	> 100 µM	> 100 µM	> 100 µM
COC(=O)C1(NC(=O)C(CC(=O)OC(C)(C)C)NC(=O)OC(C)(C)C)CC1 (stereo not drawn) (Boc-[ξD](OtBu)-[Ac3c]-OMe)	> 100 µM	> 100 µM	> 100 µM	> 100 µM	> 100 µM	> 100 µM	> 100 µM	> 100 µM	> 100 µM
CCN1CCCC(Nc2cc(C)nc(/N=C(/N)Nc3ccc(Cl)c(Cl)c3)n2)C1 (stereo not drawn)	2.95 µM	4.22 µM	3.1 µM	2.95 µM		2.93 µM	2.61 µM	3.59 µM	2.18 µM
O=C1CCC2(O)C3Cc4ccc(Oc5nnnn5-c5ccccc5)c5c4C2(CCN3CC2CC2)C1O5 (stereo not drawn)	41.2 µM	> 100 µM	> 100 µM	32.9 µM	> 100 µM	> 100 µM	61.6 µM	> 100 µM	61.1 µM
CCCCCn1c(=O)c2c(=O)[nH][nH]c2c2ccccc21	> 100 µM	> 100 µM	> 100 µM	> 100 µM	> 100 µM	> 100 µM	> 100 µM	> 100 µM	> 100 µM
CCC(=O)NC(OCC1(CC)COC1)(C(F)(F)F)C(F)(F)F					> 100 µM	> 100 µM	> 100 µM	> 100 µM	> 100 µM
Oc1ccc(Cl)cc1C1=N/C(=N\C/N=C2\N=C(c3cc(Cl)ccc3O)CC(c3ccccc3)N2)NC(c2ccccc2)C1 (stereo not drawn)	> 100 µM	> 100 µM	> 100 µM	> 100 µM		> 100 µM		> 100 µM	> 100 µM
COC(=O)C1CCCCNC(=O)CCC(NC(=O)OCc2ccccc2)C(=O)N1 (stereo not drawn) (Cbz-Glu-Lys-OMe; lactam 1-2; configuration not given here)	> 100 µM	> 100 µM	> 100 µM	> 100 µM	> 100 µM	> 100 µM	> 100 µM	> 100 µM	> 100 µM
COC(=O)/C=C/c1cc(OC)c2oc(-c3ccc(OC)c(OC)c3)c(C(=O)OC)c2c1	> 100 µM	> 100 µM	> 100 µM	> 100 µM	> 100 µM	> 100 µM		> 100 µM	> 100 µM
C/C=C/[C@H]1O[C@@](O)([C@@H](C)[C@H](O)[C@H](C)[C@H]2OC(=O)/C(OC)=C/C(C)=C/[C@@H](C)[C@@H](O)[C@@H](CC)[C@@H](O)[C@H](C)C/C(C)=C/C=C/[C@@H]2OC)C[C@H](OC2CC(O)C(OC(N)=O)C(C)O2)[C@@H]1C (stereo partly drawn)	15.7 µM	17.7 µM	14.4 µM	4.91 µM	48 µM	14.4 µM	7.39 µM	17.2 µM	
CCCCc1ccc(-n2sc3ncccc3c2=O)cc1	25.2 µM	99.4 µM		33.3 µM	43.2 µM	26 µM	8.4 µM	42.5 µM	34.7 µM
CC(C)=Nn1cnc(C(=N)C#N)c1N	> 100 µM	> 100 µM	> 100 µM	> 100 µM		> 100 µM	> 100 µM	> 100 µM	> 100 µM
